Laboratory results reported in patent US20260070922A1, “PYRAZOLE AND IMIDAZOLE DERIVATIVES AS DUAL OREXIN AND KAPPA-OPIOID RECEPTORS MODULATORS COMPOSITION, METHODS FOR TREATING NEUROLOGICAL AND PSYCHIATRIC DISORDERS” (HAGER BIOSCIENCES, LLC, priority 2022, published 2026).

Tests used:
[1] = target: T1, human k-opioid receptor (kOR) (Homo sapiens, UniProt P41145); assay: Human k-opioid (KOP) receptor (agonist radioligand [3H]U-69593) binding assay, transfected RBL cell membranes; settings: read-out: KOR % Inh. @ 1 uM
T1 construct: expressed in transfected cells; host or cells: RBL cells (membrane homogenates)
Method: Human k-Opioid (KOP) Receptor (Agonist Radioligand) Binding Assay
Purpose: Evaluation of the affinity of compounds for the human k-opioid receptor in transfected RBL cells determined in a radioligand binding assay.
Experimental protocol: Cell membrane homogenates (about 80 μg protein) are incubated for 60 min at 22° C. with 0.5 nM [3H]U-69593 in the absence or presence of the test compound in a buffer containing 50 mM Tris-HCl (pH 7.4), 10 mM MgCl2 and 1 mM EDTA. Nonspecific binding is determined in the presence of 10 μM naloxone. Following incubation, the samples are filtered rapidly under vacuum through glass fiber filters ([…], Packard) presoaked with 0.3% PEI and rinsed several times with ice-cold 50 mM Tris-HCl using a 96-sample cell harvester (Unifilter, Packard). The filters are dried then counted for radioactivity in a scintillation counter (Topcount, Packard) using a scintillation cocktail (Microscint 0, Packard). The results are expressed as a percent inhibition of the control radioligand specific binding. The standard reference compound is U-50488, which is tested in each experiment at several concentrations to obtain a competition curve from which its IC50 is calculated.

[2] = target: T2, human orexin-2 receptor (OX2R) (Homo sapiens, UniProt O43614); assay: In vitro orexin antagonism assay: intracellular calcium measurement (FLIPR), orexin-A 3 nM as agonist; assay type: cell-based; settings: for IC50: first value of IC50/Kb cell; for inhibition at 1 µM: read-out: OX2R, % Inh. @ 1 uM; for Kb: second value of IC50/Kb cell
T2 construct: expressed in transfected cells; host or cells: CHO cells (G418 selection)
T2 sequence (O43614 1-444): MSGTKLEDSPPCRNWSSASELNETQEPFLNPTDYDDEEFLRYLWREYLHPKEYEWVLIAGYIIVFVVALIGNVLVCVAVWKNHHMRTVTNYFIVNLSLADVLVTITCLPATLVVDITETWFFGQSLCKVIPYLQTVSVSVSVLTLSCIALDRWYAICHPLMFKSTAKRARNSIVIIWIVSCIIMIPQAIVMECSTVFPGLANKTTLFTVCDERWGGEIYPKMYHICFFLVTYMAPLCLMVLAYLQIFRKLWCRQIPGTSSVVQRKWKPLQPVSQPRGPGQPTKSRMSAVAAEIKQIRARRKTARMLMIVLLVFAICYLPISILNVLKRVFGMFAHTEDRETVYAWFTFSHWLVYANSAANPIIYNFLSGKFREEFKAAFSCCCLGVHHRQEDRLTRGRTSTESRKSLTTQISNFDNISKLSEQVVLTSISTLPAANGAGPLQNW
Outline: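 Fluorescence peak on 3 nM orexin-A challenge, read by FLIPR and compared with vehicle, yields IC50 (geometric mean when repeated; may be normalized to an on-plate reference). Antagonists were added 120 min beforehand to fluo-4-loaded recombinant CHO cells expressing human OX1R or OX2R.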

[3] = target: T3, Orexin type 1 (OX1R) receptor (Homo sapiens, UniProt O43613); assay: as above; assay type: cell-based; settings: for IC50: first value of IC50/Kb cell; for inhibition at 1 µM: read-out: OX1R, % Inh. @ 1 uM; for Kb: second value of IC50/Kb cell
T3 construct: expressed in transfected cells; host or cells: CHO cells (G418 selection)
T3 sequence (O43613 1-425): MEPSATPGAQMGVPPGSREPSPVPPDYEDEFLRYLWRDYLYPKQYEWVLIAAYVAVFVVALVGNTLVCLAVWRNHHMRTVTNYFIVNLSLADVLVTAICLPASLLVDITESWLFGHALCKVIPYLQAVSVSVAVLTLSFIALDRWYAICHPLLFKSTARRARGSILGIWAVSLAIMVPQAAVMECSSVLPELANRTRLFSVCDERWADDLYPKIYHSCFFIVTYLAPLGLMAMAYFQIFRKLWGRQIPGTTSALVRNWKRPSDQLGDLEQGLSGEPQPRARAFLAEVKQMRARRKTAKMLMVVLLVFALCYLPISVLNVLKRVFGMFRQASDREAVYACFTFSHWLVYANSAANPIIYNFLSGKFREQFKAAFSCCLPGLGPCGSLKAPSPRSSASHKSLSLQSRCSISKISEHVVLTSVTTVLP
Outline: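 CHO cells expressing the human orexin receptor were loaded with 3 μM fluo-4 AM plus 5 mM probenecid, then exposed to antagonist for 120 min before 3 nM orexin-A (final) was added on a FLIPR.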

T1 sequence (P41145 whole entry): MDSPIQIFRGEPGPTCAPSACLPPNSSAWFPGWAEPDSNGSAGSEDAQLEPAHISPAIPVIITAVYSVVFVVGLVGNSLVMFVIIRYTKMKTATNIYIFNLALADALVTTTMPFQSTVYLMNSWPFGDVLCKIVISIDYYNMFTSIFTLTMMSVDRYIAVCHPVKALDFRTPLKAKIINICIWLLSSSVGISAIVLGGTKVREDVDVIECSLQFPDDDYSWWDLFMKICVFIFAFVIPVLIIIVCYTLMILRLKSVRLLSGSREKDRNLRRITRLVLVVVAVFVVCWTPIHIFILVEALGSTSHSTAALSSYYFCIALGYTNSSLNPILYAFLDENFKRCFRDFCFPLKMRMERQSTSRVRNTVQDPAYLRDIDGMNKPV

SMILES	inhibition at 1 µM [1] [%]	IC50 [2] [nM]	inhibition at 1 µM [2] [%]	Kb [2] [nM]	IC50 [3] [nM]	inhibition at 1 µM [3] [%]	Kb [3] [nM]
O=C(c1nc2ccccn2c1-c1ccccc1)N1[C@@H]2CC[C@@H](C2)[C@H]1COc1ccc(C(F)(F)F)cn1 [Example 125]	7	20	57	3	190	93	41
O=C(c1nc2ccccn2c1-c1ccccc1)N1[C@H](Cn2ccc(-c3ccc(F)cn3)n2)C[C@@H]2C[C@@H]21 [Example 126]	10	–	24	–	17	99	4
O=C(c1nc2ccccn2c1-c1ccccc1)N1CCC[C@H]1Cc1nc(-c2ccc(F)cn2)no1 [Example 127]	17	–	31	–	5	100	1
O=C(c1nc2ccccn2c1-c1ccccc1)N1CCC[C@H]1Cc1nc(-c2ccccn2)no1 [Example 128]	19	–	17	–	7	100	1
O=C(c1nn2c(c1-c1ccccc1)COCC2)N1CCC[C@H]1Cn1ccc(-c2ccccc2)n1 [Example 129]	7	240	88	41	6	100	1
O=C(c1nn2c(c1-c1ccccc1)OCCC2)N1CCC[C@H]1Cn1ccc(-c2ccccc2)n1 [Example 130]	53	110	98	19	9	100	2
O=C(c1c(-c2ncccn2)nn2ccccc12)N1CCC[C@H]1Cn1ccc(-c2ccccc2)n1 [Example 131]	27	68	91	12	4	100	1
O=C(c1c(-c2ccccn2)nn2ccccc12)N1CCC[C@H]1Cn1ccc(-c2ccccc2)n1 [Example 132]	35	16	98	3	4	100	1
O=C(c1c(-c2ccccc2)nn2cccnc12)N1CCC[C@H]1Cn1ccc(-c2ccccc2)n1 [Example 133]	44	83	81	14	4	99	1
O=C(c1nn2c(c1-c1ccccc1)COCC2)N1CCC[C@H]1Cn1ccc(-c2ccccn2)n1 [Example 134]	0	–	44	–	12	100	3
O=C(c1nn2c(c1-c1ccccc1)OCCC2)N1CCC[C@H]1Cn1ccc(-c2ccccn2)n1 [Example 135]	22	660	71	110	4	100	1
O=C(c1nn2cccnc2c1-c1ccccc1)N1CCC[C@H]1Cn1ccc(-c2ccccc2)n1 [Example 136]	26	3	74	0.5	9	99	1
O=C(c1nn2cccnc2c1-c1ccccc1)N1CCC[C@H]1Cn1ccc(-c2ccccn2)n1 [Example 137]	9	490	52	85	5	99	1
O=C(c1c(-c2ncccn2)nn2ccccc12)N1CCC[C@H]1Cn1ccc(-c2ccccn2)n1 [Example 138]	0	490	62	84	9	100	2
